Holding throughout (test): EC50 assay: Ba/F3 stable cell proliferation (CCK-8, 72 h)
Format in all cases: cell-based

For test [1], the target named is T1, Ba/F3 stable cells (Homo sapiens, UniProt P00533, DUP767-769, cells depend on it).
T1 construct: EC50 Ba/F3-EGFR V769-D770insASV; other: Ba/F3-EGFR V769-D770insASV cells, 72 h, CCK-8
Conditions: Ba/F3-EGFR V769-D770insASV cells. The method, boiled down:
(§1)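 Ba/F3 stable cells were seeded at 4,000 cells/90 μL/well in 96-well plates and held 2 h at 37° C. in 5% CO2, then given 10 μL of serially titrated compound (0.1% DMSO final). After 72 h at 37° C., CCK-8 reagent was added for 4 hours and absorbance read at 450 nm to derive EC50.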

Test [2] has as its target T2, Ba/F3 stable cells (Homo sapiens, UniProt P00533, DUP771-773, cells depend on it).
T2 construct: EC50 Ba/F3-EGFR H773-V774insNPH; other: Ba/F3-EGFR H773-V774insNPH cells, 72 h, CCK-8
The settings on record: Ba/F3-EGFR H773-V774insNPH cells. The method, boiled down:
as §1

The target of test [3] is T3, Ba/F3 stable cells (Homo sapiens, UniProt P04626, DUP772-775, cells depend on it).
T3 construct: EC50 Ba/F3-HER2 A775-G776insYVMA; other: Ba/F3-HER2 A775-G776insYVMA cells, 72 h, CCK-8
T3 sequence (P04626 with tags, fused parts or gaps DUP772-775): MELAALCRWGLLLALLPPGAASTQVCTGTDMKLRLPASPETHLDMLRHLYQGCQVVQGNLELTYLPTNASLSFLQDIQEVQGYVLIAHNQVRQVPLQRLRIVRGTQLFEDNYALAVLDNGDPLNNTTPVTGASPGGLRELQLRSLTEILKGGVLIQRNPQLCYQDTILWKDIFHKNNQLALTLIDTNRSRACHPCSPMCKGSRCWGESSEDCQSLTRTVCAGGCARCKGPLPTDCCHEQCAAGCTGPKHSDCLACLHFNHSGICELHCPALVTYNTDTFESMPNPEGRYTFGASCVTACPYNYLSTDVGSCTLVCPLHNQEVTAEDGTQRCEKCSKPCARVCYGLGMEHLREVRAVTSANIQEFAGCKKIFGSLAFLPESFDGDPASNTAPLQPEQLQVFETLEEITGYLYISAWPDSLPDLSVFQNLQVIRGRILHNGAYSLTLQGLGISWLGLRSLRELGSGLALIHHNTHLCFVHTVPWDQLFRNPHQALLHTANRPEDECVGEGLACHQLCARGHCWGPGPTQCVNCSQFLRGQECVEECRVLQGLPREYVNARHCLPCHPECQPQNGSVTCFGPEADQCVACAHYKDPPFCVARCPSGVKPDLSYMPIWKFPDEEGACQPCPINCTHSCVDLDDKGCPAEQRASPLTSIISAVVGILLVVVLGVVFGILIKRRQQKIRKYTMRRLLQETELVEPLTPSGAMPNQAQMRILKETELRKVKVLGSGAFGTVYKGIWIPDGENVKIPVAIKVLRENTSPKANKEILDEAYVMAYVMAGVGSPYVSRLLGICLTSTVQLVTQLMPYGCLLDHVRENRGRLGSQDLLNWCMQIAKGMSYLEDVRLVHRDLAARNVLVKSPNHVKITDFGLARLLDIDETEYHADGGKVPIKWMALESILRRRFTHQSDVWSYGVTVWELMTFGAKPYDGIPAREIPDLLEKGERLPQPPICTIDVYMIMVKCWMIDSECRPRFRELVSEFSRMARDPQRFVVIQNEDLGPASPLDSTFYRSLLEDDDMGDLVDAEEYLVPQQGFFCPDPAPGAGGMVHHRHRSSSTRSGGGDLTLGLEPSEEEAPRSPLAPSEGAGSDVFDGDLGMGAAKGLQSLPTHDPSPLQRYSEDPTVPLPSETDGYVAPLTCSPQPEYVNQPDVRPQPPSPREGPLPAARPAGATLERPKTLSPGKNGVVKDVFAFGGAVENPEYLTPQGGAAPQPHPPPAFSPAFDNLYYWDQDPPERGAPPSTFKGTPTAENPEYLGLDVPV
Conditions: Ba/F3-HER2 A775-G776insYVMA cells. The method, boiled down:
as §1

Test [4] concerns the target T4, Ba/F3 stable cells (Homo sapiens, UniProt P00533, DUP768-770, cells depend on it).
T4 construct: EC50 Ba/F3-EGFR D770-N771insSVD; other: Ba/F3-EGFR D770-N771insSVD cells, 72 h, CCK-8
The settings on record: Ba/F3-EGFR D770-N771insSVD cells. The method, boiled down: as §1

Test [5] addresses T5, Ba/F3 stable cells (Homo sapiens, UniProt P00533, T790M/L858R, cells depend on it).
T5 construct: EC50 Ba/F3-EGFR L858R-T790M; other: Ba/F3-EGFR L858R-T790M cells, 72 h, CCK-8
The settings on record: Ba/F3-EGFR L858R-T790M cells. The method, boiled down:
as §1

In test [6] the target is T6, Ba/F3 stable cells (Homo sapiens, UniProt P00533, INS763FQEA, cells depend on it).
T6 construct: EC50 Ba/F3-EGFR A763-Y764insFQEA; other: Ba/F3-EGFR A763-Y764insFQEA cells, 72 h, CCK-8
T6 sequence (P00533 with tags, fused parts or gaps INS763FQEA): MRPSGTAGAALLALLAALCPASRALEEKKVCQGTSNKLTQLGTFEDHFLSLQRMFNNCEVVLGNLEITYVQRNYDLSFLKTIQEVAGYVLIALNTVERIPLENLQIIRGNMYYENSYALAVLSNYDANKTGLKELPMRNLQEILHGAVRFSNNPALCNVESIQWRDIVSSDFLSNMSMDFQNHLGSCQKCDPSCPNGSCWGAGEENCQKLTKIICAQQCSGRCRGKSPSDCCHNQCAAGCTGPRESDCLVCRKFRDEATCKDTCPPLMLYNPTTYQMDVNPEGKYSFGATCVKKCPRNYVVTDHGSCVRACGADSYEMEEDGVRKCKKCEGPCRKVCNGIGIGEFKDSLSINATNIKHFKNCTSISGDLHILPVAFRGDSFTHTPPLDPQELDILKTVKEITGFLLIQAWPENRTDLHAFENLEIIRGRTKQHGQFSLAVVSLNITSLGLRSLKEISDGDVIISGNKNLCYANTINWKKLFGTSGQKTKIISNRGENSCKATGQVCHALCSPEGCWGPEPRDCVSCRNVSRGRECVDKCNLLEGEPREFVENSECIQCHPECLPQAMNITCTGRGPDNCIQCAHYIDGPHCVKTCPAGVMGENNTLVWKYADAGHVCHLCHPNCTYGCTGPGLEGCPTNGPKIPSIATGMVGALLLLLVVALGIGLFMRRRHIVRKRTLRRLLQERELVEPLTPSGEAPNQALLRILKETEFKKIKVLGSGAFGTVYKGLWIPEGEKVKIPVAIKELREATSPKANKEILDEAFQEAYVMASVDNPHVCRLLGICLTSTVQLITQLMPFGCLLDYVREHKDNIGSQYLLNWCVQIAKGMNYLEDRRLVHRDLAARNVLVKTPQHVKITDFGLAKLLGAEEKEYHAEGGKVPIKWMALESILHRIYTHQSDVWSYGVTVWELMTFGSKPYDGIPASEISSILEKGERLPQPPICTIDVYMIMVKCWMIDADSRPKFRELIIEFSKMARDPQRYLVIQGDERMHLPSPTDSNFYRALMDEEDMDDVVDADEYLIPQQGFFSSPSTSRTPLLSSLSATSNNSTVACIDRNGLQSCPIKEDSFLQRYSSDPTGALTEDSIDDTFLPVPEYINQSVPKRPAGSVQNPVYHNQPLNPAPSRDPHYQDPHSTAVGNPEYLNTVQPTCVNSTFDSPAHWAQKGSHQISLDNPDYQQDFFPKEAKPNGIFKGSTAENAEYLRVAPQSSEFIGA
Conditions: Ba/F3-EGFR A763-Y764insFQEA cells. The method, boiled down: as §1

T5 sequence (P00533 whole entry T790M/L858R): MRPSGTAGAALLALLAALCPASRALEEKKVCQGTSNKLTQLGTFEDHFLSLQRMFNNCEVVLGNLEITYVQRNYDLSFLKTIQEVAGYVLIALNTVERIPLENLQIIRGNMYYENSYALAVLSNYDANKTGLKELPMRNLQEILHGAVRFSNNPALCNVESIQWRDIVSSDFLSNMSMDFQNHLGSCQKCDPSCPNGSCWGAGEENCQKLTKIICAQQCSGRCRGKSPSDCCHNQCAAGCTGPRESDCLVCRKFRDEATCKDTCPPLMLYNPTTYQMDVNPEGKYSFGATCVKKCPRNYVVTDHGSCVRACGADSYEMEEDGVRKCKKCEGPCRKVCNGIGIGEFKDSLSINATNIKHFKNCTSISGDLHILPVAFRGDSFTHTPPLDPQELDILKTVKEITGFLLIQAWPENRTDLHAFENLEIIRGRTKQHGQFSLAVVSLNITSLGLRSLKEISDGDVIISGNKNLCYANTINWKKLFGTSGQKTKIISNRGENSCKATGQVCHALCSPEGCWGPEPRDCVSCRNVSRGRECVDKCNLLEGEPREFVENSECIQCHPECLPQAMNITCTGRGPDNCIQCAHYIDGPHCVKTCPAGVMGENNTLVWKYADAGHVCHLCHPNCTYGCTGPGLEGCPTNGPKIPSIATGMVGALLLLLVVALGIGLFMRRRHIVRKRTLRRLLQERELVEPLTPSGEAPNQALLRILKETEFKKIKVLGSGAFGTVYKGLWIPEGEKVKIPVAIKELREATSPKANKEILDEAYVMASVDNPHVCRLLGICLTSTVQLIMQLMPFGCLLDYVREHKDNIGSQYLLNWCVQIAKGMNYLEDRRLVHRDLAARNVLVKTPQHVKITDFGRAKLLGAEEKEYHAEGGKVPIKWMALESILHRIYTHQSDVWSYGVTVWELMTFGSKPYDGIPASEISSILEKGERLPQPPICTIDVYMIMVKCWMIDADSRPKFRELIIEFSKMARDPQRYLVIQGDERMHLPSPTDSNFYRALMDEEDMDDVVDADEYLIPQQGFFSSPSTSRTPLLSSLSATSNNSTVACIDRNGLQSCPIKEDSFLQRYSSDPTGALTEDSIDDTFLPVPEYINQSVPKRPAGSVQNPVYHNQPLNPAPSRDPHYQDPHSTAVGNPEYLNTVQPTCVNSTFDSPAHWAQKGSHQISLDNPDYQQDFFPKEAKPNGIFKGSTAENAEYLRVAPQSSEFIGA
T2 sequence (P00533 with tags, fused parts or gaps DUP771-773): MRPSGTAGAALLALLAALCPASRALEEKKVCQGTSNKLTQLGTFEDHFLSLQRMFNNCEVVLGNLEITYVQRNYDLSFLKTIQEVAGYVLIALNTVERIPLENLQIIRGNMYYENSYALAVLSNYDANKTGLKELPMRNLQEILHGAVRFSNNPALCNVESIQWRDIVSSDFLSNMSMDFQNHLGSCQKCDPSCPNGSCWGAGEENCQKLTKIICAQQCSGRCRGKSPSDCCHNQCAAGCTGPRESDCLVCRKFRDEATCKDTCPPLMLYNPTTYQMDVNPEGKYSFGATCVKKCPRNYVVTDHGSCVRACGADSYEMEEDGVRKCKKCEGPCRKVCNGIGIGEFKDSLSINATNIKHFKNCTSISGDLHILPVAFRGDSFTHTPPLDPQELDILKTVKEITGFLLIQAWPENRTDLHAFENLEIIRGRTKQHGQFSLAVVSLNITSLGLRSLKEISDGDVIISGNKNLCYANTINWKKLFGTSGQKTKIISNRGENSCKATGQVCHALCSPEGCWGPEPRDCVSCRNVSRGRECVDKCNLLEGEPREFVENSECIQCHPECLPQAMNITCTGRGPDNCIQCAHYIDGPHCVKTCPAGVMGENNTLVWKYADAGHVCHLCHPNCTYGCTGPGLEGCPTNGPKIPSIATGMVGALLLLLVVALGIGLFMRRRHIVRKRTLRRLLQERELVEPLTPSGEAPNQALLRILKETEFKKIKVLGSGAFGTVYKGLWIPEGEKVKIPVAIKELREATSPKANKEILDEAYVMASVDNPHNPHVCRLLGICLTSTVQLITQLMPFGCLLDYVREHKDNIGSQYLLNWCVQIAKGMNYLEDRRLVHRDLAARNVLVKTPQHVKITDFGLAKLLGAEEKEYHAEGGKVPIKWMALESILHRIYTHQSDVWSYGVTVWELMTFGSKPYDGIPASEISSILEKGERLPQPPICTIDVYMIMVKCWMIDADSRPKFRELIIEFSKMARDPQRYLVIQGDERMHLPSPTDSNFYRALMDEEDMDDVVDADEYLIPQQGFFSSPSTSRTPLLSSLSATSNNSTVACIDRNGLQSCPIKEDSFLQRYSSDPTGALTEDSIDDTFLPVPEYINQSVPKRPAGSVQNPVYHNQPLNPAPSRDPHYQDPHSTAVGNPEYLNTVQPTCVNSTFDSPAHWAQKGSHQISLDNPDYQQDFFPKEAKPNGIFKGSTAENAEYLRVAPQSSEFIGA

In the case of `C=CC(=O)N1CCC(Oc2c(OC)cc3ncnc4c3c2C=CN4c2ccc(Cl)c(Cl)c2F)CC1` [Compound 218, 1-(4-((4-(3,4-dichloro-2-fluorophenyl)-8-methoxy-4H-pyrido[2,3,4-de]quinazolin-7-yl)oxy)piperidin-1-yl)prop-2-en-1-one], the concentration for a half-maximal effect (EC50) in test [1] is at most 200 nM; in test [2] it was at most 200 nM; in test [3] it was above 1000 nM; in test [4] it was 200 to 1000 nM; in test [5], 200 to 1000 nM; in test [6] it was at most 200 nM.

On to `C=CS(=O)(=O)N1CCC(Oc2c(OC)cc3ncnc4c3c2NC(=O)N4c2ccc(Cl)c(Cl)c2F)CC1` [Compound 225, 3-(3,4-dichloro-2-fluorophenyl)-8-methoxy-9-((1-(vinylsulfonyl)piperidin-4-yl)oxy)-1H-pyrimido[4,5,6-de]quinazolin-2(3H)-one], for which the EC50 in test [1] is at most 200 nM; in test [2] it was at most 200 nM; in test [3] it was above 1000 nM; in test [4], at most 200 nM; in test [5], at most 200 nM; in test [6], at most 200 nM.

For the compound `C=CS(=O)(=O)N1CCC(Oc2c(OC)cc3ncnc4c3c2NC(=O)N4c2ccc(Cl)c(Cl)c2)CC1` [Compound 226, 3-(3,4-dichlorophenyl)-8-methoxy-9-((1-(vinylsulfonyl)piperidin-4-yl)oxy)-1H-pyrimido[4,5,6-de]quinazolin-2(3H)-one], the concentration for a half-maximal effect (EC50) is 200 to 1000 nM in test [1]; at most 200 nM in test [2]; at most 200 nM in test [3]; 200 to 1000 nM in test [4]; at most 200 nM in test [5]; at most 200 nM in test [6].

As for `C#CC(=O)N1CCC(Oc2c(OC)cc3ncnc4c3c2NC(=O)N4c2ccc(Cl)c(Cl)c2)CC1` [Compound 227, 3-(3,4-dichlorophenyl)-8-methoxy-9-((1-propioloylpiperidin-4-yl)oxy)-1H-pyrimido[4,5,6-de]quinazolin-2(3H)-one], the EC50 in test [1] is 200 to 1000 nM; in test [2], at most 200 nM; in test [3] it was 200 to 1000 nM; in test [4], 200 to 1000 nM; in test [5], at most 200 nM; in test [6], at most 200 nM.

As to `C=CC(=O)NC1COc2c(-c3cnc4ccccc4c3)c3c(N)ncnc3n2C1` (stereo not drawn) [Compound 228, N-(4-amino-5-(quinolin-3-yl)-8,9-dihydro-7H-pyrimido[5′,4′:4,5]pyrrolo[2,1-b][1,3]oxazin-8-yl)acrylamide], the EC50 in test [1] is 200 to 1000 nM; in test [2], above 1000 nM; in test [3], above 1000 nM; in test [4], above 1000 nM; in test [5], at most 200 nM; in test [6], at most 200 nM.

For orientation: EC50 means the concentration needed to bring the measured effect to its halfway point. The low end stands for higher potency in that assay, the high end for lower potency in that assay.
